Test results as given in patent US10344279B2, “Methods for the prevention and the treatment of extracapillary glomerulonephritis” (INSERM (Institut National de la Sante et de la Recherche …, priority 2014, dated 2019).

Columns and labels:
phospho-STAT3 (Tyr705) = assay: Western blot of phospho-STAT3 in glomeruli / kidney cortex of NTS-challenged mice; assay type: in vivo; conditions: Stattic 25 mg/kg i.p. every other day, started with NTS; 129S2 mice; after 10 days of RPGN; vs vehicle
Method: Podocyte-specific disruption of Stat3 mice were generated by crossing podocin-Cre positive mice (63) with Stat3 floxed mice (64) on C57BL6/J background. Their age-matched littermates with no deletion of Stat3 in any cells are considered as controls. […] Stattic (25 mg/kg) was administered in i.p. way every other day for 10 days. 10 weeks old 129S2/SvPasCr male mice were randomly treated with Stattic and were compared to vehicle-treated (DMSO) littermates.
The glomerulonephritis was induced on male mice (10-12 weeks of age) by intravenous injection of 15 μL of sheep anti-glomerular basement membrane (GBM) nephrotoxic serum (NTS), which was diluted with 85 μL of sterile phosphate buffer solution. Serum injections were repeated twice (on days 2 and 3) at 6 μL/g of body weight and 7 μL/g respectively.
Mouse kidneys were extracted, minced, and digested in 2 mg/mL collagenase I solution (Gibco) in RPMI 1640 (Invitrogen) at 37° C. for 3 minutes, then filtered through a 70-μm cell strainer and one more through a 40-μm cell strainer. […] Podocyte outgrowth area was quantified at day 4 using ImageJ software.
After extraction from glomeruli or podocytes with lysis buffer, proteins were quantified by BCA protein assay kit (iNtRON Biotechnology). […] Protein loading was monitored by using the rat anti-tubulin antibody (Abeam). […] Densitometric analysis with ImageJ software was used for quantification.

[1] = tested on: miR-17, miR-18a, miR-19a and miR-20a; assay: RT-qPCR of other miR-17-92 cluster members in isolated glomeruli of NTS-challenged mice; assay type: in vivo; conditions: antagomiR 12 mg/kg i.v., preventive strategy; 10 days after NTS
Method: […] U6 snRNA was used as endogenous control.
For preventive strategy, antagomiR treatment (12 mg/kg) started 3 days before NTS injection. AntagomiRs (VBC biotech, Vienna) were delivered by retro-orbital i.v. injections under brief anesthesia. Second and third injections were performed on days 1 and 3 with NTS injection. For curative strategy, antagomir were injected on days 4, 5 and 8 after NTS. A scramble antagomiR (Antagomir-Control) was used as control. The sequences were obtained from previously published manuscript (66). In the miR-92 antagomir and control antagomir, the 2′O RNA base are methylated followed by first two bases and last 3 bases are phosphorothiated to increase the stability of antagomir from degradation. In addition, a cholesterol-TEG was added at the 3′ for easy entry of antagomir into the cells. AntagomiR-Control (SEQ ID NO: 7, anti-miR-ctrl): 5′-[…]-3′ and antagomiR-92a (SEQ ID NO: 8, anti-miR-92a): 5′-[…]-3′ as shown to be effective after in vivo administration in kidneys (34, 67). Saline-treated mice were used as control of the scramble antagomiR.

Row | Compound | STAT3 (Tyr705) phosphorylation in glomeruli (phospho-STAT3 (Tyr705)) | levels of others miR of 17-92 cluster in isolated glomeruli [1]
1 | O=[N+]([O-])c1ccc2c(c1)S(=O)(=O)C=C2 [Stattic] | significantly reduced | –
2 | anti-miR-92a: 2′O-methylated, end-phosphorothioated antagomir with 3′ cholesterol-TEG, SEQ ID NO: 8, 5′-CAGGCCGGGACAAGUGCAAUA-3′ (VBC biotech) (listed as RNA, chemistry not fully specified) | – | without modify
